Values of other authors, collected in US20230404964A1, “COMBINATION FOR REDUCING OXIDATIVE STRESS IN THE BODY AND MAINTAINING LIVER FUNCTIONS” (priority 2020, published 2023).
“And” between values parts separate entries of the source, which are not always exact repeats. Identical values can stand only once.

Tested on: HUVEC cells
Conditions: pretreatment with DHM 37.5-300 μmol, hydrogen peroxide

## O=C1c2c(O)cc(O)cc2O[C@H](c2cc(O)c(O)c(O)c2)[C@H]1O [DHM, Dihydromyricetin]
Depending on the dose
  decrease in apoptosis: 14.83% and 11.1% and 9.12%
  MDA concentration (in words): decrease in the MDA concentration
  production of reactive oxygen species (in words): significant decrease in the production of reactive oxygen species
